{"source": "paper PMC7588042", "key": {"[1]": {"assay": "double amidation of dimethyl bis(oxyacetate) diester with alpha,omega-diamine (aminolysis of methyl ester, no additive), 10 kbar, 24 h", "details": "the molecule shown is the open-chain precursor, MeOH, 30.0 mM, 25.0 °C, 2 steps, scale: mol% diamide"}, "[2]": {"assay": "double amidation of dimethyl bis(oxyacetate) diester with alpha,omega-diamine (aminolysis of methyl ester, no additive), 1 bar, 168 h", "details": "the molecule shown is the open-chain precursor, MeOH, 30.0 mM, 25.0 °C, 2 steps, scale: mol% diamide"}}}
{"smiles": "COC(=O)COc1ccc(OCC(=O)NCCCOCCCCOCCCN)cc1", "note": "[3{3,2}]", "values": [{"measurement": "ring closure, monomer to dimer", "setting": "[1]; 24-membered ring", "result": 81}, {"measurement": "ring closure, monomer to dimer", "setting": "[2]; 24-membered ring", "result": 85}]}
{"smiles": "COC(=O)COc1cccc(OCC(=O)NCCCOCCCCOCCCN)c1", "note": "[3{2,2}]", "values": [{"measurement": "ring closure, monomer to dimer", "setting": "[1]; 23-membered ring", "result": 76.5}, {"measurement": "ring closure, monomer to dimer", "setting": "[2]; 23-membered ring", "result": 85}]}
{"smiles": "COC(=O)COc1cccc(OCC(=O)NCCOCCN)c1", "note": "[3{2,1}]", "values": [{"measurement": "ring closure, monomer to dimer", "setting": "[1]; 16-membered ring", "result": 68.5}, {"measurement": "ring closure, monomer to dimer", "setting": "[2]; 16-membered ring", "result": 77}]}
{"smiles": "COC(=O)COc1ccccc1OCC(=O)NCCCOCCOCCOCCCN", "note": "[3{1,3}]", "values": [{"measurement": "ring closure, monomer to dimer", "setting": "[1]; 23-membered ring", "result": 76}, {"measurement": "ring closure, monomer to dimer", "setting": "[2]; 23-membered ring", "result": 88}]}
{"smiles": "COC(=O)COc1ccccc1OCC(=O)NCCCOCCCCOCCCN", "note": "[3{1,2}]", "values": [{"measurement": "ring closure, monomer to dimer", "setting": "[1]; 22-membered ring", "result": 78}, {"measurement": "ring closure, monomer to dimer", "setting": "[2]; 22-membered ring", "result": 85}]}
{"smiles": "COC(=O)COc1ccc(OCC(=O)NCCCOCCOCCOCCCN)cc1", "note": "[3{3,3}]", "values": [{"measurement": "ring closure, monomer to dimer", "setting": "[1]; 25-membered ring", "result": 79}, {"measurement": "ring closure, monomer to dimer", "setting": "[2]; 25-membered ring", "result": 89}]}
{"smiles": "COC(=O)COc1cccc(OCC(=O)NCCCOCCOCCOCCCN)c1", "note": "[3{2,3}]", "values": [{"measurement": "ring closure, monomer to dimer", "setting": "[1]; 24-membered ring", "result": 78}, {"measurement": "ring closure, monomer to dimer", "setting": "[2]; 24-membered ring", "result": 95}]}
{"smiles": "COC(=O)COc1ccccc1OCC(=O)NCCOCCN", "note": "[3{1,1}]", "values": [{"measurement": "ring closure, monomer to dimer", "setting": "[1]; 15-membered ring", "result": 95}, {"measurement": "ring closure, monomer to dimer", "setting": "[2]; 15-membered ring", "result": 99.5}]}
{"smiles": "COC(=O)COc1ccc(OCC(=O)NCCOCCN)cc1", "note": "[3{3,1}]", "values": [{"measurement": "ring closure, monomer to dimer", "setting": "[1]; 17-membered ring", "result": 16.5}, {"measurement": "ring closure, monomer to dimer", "setting": "[2]; 17-membered ring", "result": 33}]}
